# Experimental data: PMC10350922, “Allosteric Inhibitors of Macrophage Migration Inhibitory Factor (MIF) Interfere with Apoptosis-Inducing Factor (AIF) Co-Localization to Prevent Parthanatos” (Journal of Medicinal Chemistry, 2023)
# Entries after “also recorded” stand apart in the source; their conditions may differ.
# Columns and labels:
# MIF [1] = biological target: T1, MIF (Homo sapiens, UniProt P14174); assay: MIF tautomerase activity assay (PP substrate, UV absorbance at 300 nm); assay type: biochemical
# T1 construct: made in house; host or cells: Escherichia coli BL21, pET-20b(p) plasmid
# T1 sequence (P14174 2-115 limits assumed): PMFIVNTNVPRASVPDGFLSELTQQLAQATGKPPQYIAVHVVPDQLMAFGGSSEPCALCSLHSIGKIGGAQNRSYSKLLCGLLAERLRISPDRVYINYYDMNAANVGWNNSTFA
# Experimental: Recombinant human MIF with a C-terminal His-tag was expressed and purified following methods published previously.[47] The inhibitory potency for MIF tautomerase activity of the 1-phenyl-1H-1,2,3-triazole-4-carboxamides was measured after pre-incubation with MIF. The MIF-catalyzed PP tautomerization was measured by the corresponding change in UV absorbance over the first 3 min of the reaction.[48] Initial screening of the inhibitory potency was performed at 10 μM inhibitor concentration.
# Inhibition of the tautomerase activity and kinetics of MIF was measured using […] (PP) as a substrate. A stock solution was prepared by mixing PP in 50 mM ammonium acetate buffer and adjusted to pH 6.0 using 1.0 M NaOH to provide a concentration of 20 mM. This solution was incubated overnight at 37 °C to allow equilibration of the keto and enol forms and then stored at 4 °C. For the assay, MIF stock solution (10 μL, 70 μM) was diluted in 20 mL of the boric acid buffer (435 mM H3BO3, 1 mM EDTA, pH 6.2) to provide 35 nM solution. The enzyme activity was determined by premixing 192 μL of the MIF dilution with 8 μL of the inhibitors dissolved in DMSO (1 mM). This mixture was preincubated for 10 min. Next, 50 μL of the mixture was mixed with 50 μL of 2 mM PP solution in ammonium acetate buffer. Subsequently, MIF tautomerase activity was monitored by the formation of the borate–enol complex, which was measured by the increase in UV absorbance at 300 nm. The increase in UV absorbance was measured over the first 10 min of incubation using a BioTek Synergy H1 Hybrid plate reader. MIF tautomerase activity in the presence of blank DMSO was set to 100% enzyme activity. […] Data from the first 3 min were used to calculate the initial velocities. All of the graphs were prepared in GraphPad Prism.
# For the IC50 measurements, 1 mM solutions of the compounds were double-diluted 10 times in DMSO and subsequently, the MIF tautomerase activity was determined by premixing 190 μL of the MIF dilution with 10 μL of the inhibitors. This mixture was preincubated for 10 min and mixed with the 2 mM PP solution as described above.
# MIF [2] = biological target: T1, MIF; assay: Enzyme kinetics of MIF-catalyzed PP conversion (Michaelis-Menten, Lineweaver-Burk); assay type: biochemical; details: for Vmax: 35 nM MIF
# Experimental: Enzyme kinetics experiments were performed to determine the mode of MIF inhibition by 6y (SI, Table S1). The rate of MIF-catalyzed PP conversion was measured at concentrations ranging from 0 to 10 mM in the absence or presence of various inhibitor concentrations (0, 1.4 μM, 2.1 μM, or 2.8 μM).
# Toward this aim, 10 μL of the inhibitors was added to 190 μL of the enzyme solution and incubated for 10 min. Then, 50 μL of these solutions was mixed with 50 μL of the solutions of the substrate with different concentrations. The reactions were measured by the increase in UV absorbance at 300 nm, and the data from the first 3 min were used to calculate the initial velocities. The negative control (no MIF) was subtracted from all of the data, and the curves were fitted using nonlinear regression, Michaelis–Menten, and linear regression, Lineweaver–Burk. Vmax was defined as the maximum velocity as extrapolated by the curve fit. The Km of PP was defined as the concentration of PP at which 50% of maximum velocity was reached. The data were analyzed using GraphPad Prism 8.
# 1. Supporting figures and tables
# Figure S1. Michaelis-Menten plot of MIF inhibition by 6y at the concentrations 0, 1.4, 2.1 and 2.8 µM.
# Table S1. Kinetic parameters of 6y measured at 35nM of MIF.
# (1 picture or pasted object on this page, not shown here)
# HeLa cells [3] = assay: Cell death determination by flow cytometry (Hoechst 33342 / PI); assay type: cell-based; details: MNNG 50 μM 15 min, with or without 100 μM inhibitor pretreatment, 24 h
# HeLa cells [4] = assay type: cell-based
# MIF/ssDNA binding = biological target: T2, MIF/ssDNA binding (Homo sapiens, UniProt P14174); assay: MIF/ssDNA binding assay (ZP307-labeled MIF, PA20-Q1 quenching); details: labeled MIF 1 μM, PA20-Q1 1 μM; 6y up to 100 μM
# T2 construct: made in house; host or cells: Escherichia coli BL21
# T2 sequence (P14174 2-115 limits assumed): T1 sequence (P14174 2-115 limits assumed)
# Text: Although in our hands the nuclease activity could not unambiguously be assigned to MIF (due to the possibility of bacterial contamination), there is still a possibility that MIF binds to single-stranded DNA (ssDNA). Furthermore, the direct interaction between MIF and ssDNA was investigated. We developed a MIF/ssDNA binding assay to detect and quantify the binding of MIF to ssDNA (Figure 6f). To establish this assay, we employed a MIF probe ZP307 (Figure 1c) that binds covalently to the N-terminal proline of MIF. This probe enables the fluorescent labeling of MIF.[38] The oligonucleotide Poly A was earlier described as a MIF nuclease substrate, lacking a secondary structure.[11] […] This enabled using the BHQ1-labeled poly A oligonucleotide (PA20-Q1) as an energy acceptor to quench fluorescence emission by labeling MIF once a MIF/ssDNA complex formed (Figure 6f). […]
# Five equivalents of probe ZP307 were mixed with recombinant MIF protein for MIF labeling and incubated overnight at 4 °C. […] The fluorescence (Ex488/Em520) was determined immediately using a BioTek Synergy H1 Hybrid plate reader. The wells in the absence of PA20-Q1 were considered a positive control (100% of fluorescence signal), whereas the wells without inhibitors were considered a negative control (0% of fluorescence signal).
smiles,measurement,setting,value
"O=C(Nc1ccccc1)c1ccc(-n2cc(C(=O)NCc3cccs3)nn2)cc1 [Compound 6y, 1-(4-(Phenylcarbamoyl)phenyl)-N-(thiophen-2-ylmethyl)-1H-1,2,3-triazole-4-carboxamide]",remaining activity at 10 µM,"MIF [1]; 10 μM inhibitor, activity without inhibitor set to 100%, mean, n = 3",12%
same,IC50,"MIF [1]; PP as substrate, 10 min preincubation, read-out: IC50, inhibition of MIF tautomerase activity",1700 ± 100 nM
same,Vmax,MIF [2]; 1.4 μM 6y,0.21±0.02 abs/min
same,Vmax,MIF [2]; 2.1 µM 6y,0.13±0.01 abs/min
same,Vmax,MIF [2]; 2.8 μM 6y,0.08±0.01 abs/min
same,Mode of MIF inhibition,"MIF [2]; Lineweaver-Burk plot, 0, 1.4, 2.1, 2.8 μM",noncompetitive
same,Vmax at highest inhibitor concentration,MIF [2]; decreasing from 0.40 ± 0.03 (control),0.08 ± 0.01 absorbance/min
same,Cells stained by PI,HeLa cells [3],20%
same,MNNG-induced DNA damage (comet assay),"HeLa cells [4]; HeLa, 50 μM 6y 2 h, then 10 μM MNNG 2 h, alkaline conditions",inhibited
same,Effect of compound alone on genome integrity (comet assay),"HeLa cells [4]; HeLa, without MNNG",did not affect genome integrity
same,Genomic DNA fragmentation (gel electrophoresis),"HeLa cells [4]; pretreatment, dose and time-dependent",protective effect
same,MIF/PA20-Q1 binding,MIF/ssDNA binding,unable to block MIF/PA20-Q1 binding; also recorded: could not replace the oligonucleotide
